Read-outs that look alike come from different tables or passages of the source.
Tests used:
β-catenin/BCL9 PPI = target: T1, β-catenin/BCL9 PPI (Homo sapiens, UniProt P35222); assay: AlphaScreen competitive inhibition assay of β-catenin/BCL9 PPI; assay type: binding; conditions: for AlphaScreen inhibitory activity in words: SAR comparison
T1 construct: Full-length β-catenin (residues 1-781); host or cells: E. coli BL21 DE3
T1 sequence (P35222 1-781): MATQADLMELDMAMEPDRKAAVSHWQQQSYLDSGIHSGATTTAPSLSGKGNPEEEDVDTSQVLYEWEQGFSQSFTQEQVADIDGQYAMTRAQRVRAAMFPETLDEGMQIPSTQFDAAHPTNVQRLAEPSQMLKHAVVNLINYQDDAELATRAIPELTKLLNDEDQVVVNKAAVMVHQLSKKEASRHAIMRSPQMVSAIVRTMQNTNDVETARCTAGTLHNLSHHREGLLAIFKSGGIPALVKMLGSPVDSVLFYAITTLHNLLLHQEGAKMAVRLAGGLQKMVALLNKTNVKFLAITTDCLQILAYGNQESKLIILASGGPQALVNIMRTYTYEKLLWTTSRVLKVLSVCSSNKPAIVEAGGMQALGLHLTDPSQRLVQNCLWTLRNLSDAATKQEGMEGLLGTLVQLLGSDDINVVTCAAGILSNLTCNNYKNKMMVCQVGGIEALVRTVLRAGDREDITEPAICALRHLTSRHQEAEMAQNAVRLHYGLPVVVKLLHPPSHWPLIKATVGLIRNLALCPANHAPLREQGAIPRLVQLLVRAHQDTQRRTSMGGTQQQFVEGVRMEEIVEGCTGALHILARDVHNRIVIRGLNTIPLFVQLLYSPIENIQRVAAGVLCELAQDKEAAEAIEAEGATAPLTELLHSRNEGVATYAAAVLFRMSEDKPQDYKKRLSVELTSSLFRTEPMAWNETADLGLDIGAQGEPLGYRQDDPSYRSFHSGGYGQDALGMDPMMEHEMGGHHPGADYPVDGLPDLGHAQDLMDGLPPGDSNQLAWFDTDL
Protocol: AlphaScreen Assays of β-Catenin and BCL9 Interaction. Experiments were performed in white opaque 384-well plates from PerkinElmer (Waltham, MA), and the samples were read on a Biotek Synergy 2 plate reader (Winooski, VT) with excitation at 680 nm and emission at 570 nm. The standard AlphaScreen protocol was used with a sensitivity setting of 200. All dilutions were made in 1x assay buffer containing 25 mM Hepes (pH 7.4), 100 mM NaCl, 0.01% Triton X-100 and 0.1% BSA to minimize nonspecific interactions.
For the β-catenin/BCL9 assay, 5 nM biotinylated BCL9, and 50 nM His6-tagged 8-catenin were incubated in assay buffer for 30 min. Different concentrations of the tested inhibitor were added and incubated in 20 μL assay buffer for another 1 h. All of the assay plates were covered and gently mixed on an orbital shaker. Donor and acceptor beads were then added to the plates to a final concentration of 10 μg/mL in 25 μL assay buffer. The mixture was incubated for 1 h before detection. The IC50 value was determined by nonlinear least-square analysis of GraphPad Prism 8.0. […] All of the experiments were performed in triplicate and carried out in the presence of 1% DMSO for small-molecule inhibitors. Each compound was assayed at least by three independent experiments. The results were expressed as mean±standard deviation.

SW480 = assay: MTS cell viability assay, SW480; assay type: cell-based; conditions: Homo sapiens, 72 h, Wnt/β-catenin hyperactive, mean ± SD (n = 3)
Protocol: (§1) MTS Cell Growth Inhibition Experiments. Colorectal cancer cells (SW480 and HCT116) and triple negative breast cancer cells (MDA-MB-231 and MDA-MB-468) were seeded in 96-well plates at 5×10^3 cells/well in DMEM with 10% FCS, maintained overnight at 37° C., and incubated with the tested compounds at various concentrations. Human mammary epithelial cell MCF10A were seeded in 96-well plates at 1×10^4 cells/well in MEGM (CC-3150, Lonza) with 100 ng/mL cholera toxin, maintained overnight at 37° C., and incubated with the tested compounds at various concentrations. Cell viability was monitored after 72 h using a freshly prepared mixture of 1 part phenazine methosulfate (PMS, Sigma) solution (0.92 mg/mL) and 19 parts 3-(4,5-dimethylthiazol-2-yl)-5-(3-carboxymethoxyphenyl)-2-(4-sulfophenyl)-2H-tetrazolium (MTS, Promega) solution (2 mg/mL). Cells were incubated in 10 μL of this solution at 37° C. for 3 h, and A490 was measured. […] Experiments were performed in triplicate.

HCT116 = assay: MTS cell viability assay, HCT116; assay type: cell-based; conditions: Homo sapiens, HCT-116; 72 h, Wnt/β-catenin hyperactive, mean ± SD (n = 3)
Protocol: as §1

MDA-MB-231 = assay: MTS cell viability assay, MDA-MB-231; assay type: cell-based; conditions: Homo sapiens, 72 h, Wnt/β-catenin hyperactive, mean ± SD (n = 3)
Protocol: as §1

MDA-MB-468 = assay: MTS cell viability assay, MDA-MB-468; assay type: cell-based; conditions: Homo sapiens, 72 h, Wnt/β-catenin hyperactive, mean ± SD (n = 3)
Protocol: as §1

MCF10A = assay: MTS cell viability assay, MCF10A; assay type: cell-based, human; conditions: for IC50: Homo sapiens, MCF-10A, 72 h, Wnt/β-catenin normal, mean ± SD (n = 3)
Protocol: as §1

[1] = tested on: Wnt/β-catenin hyperactive cancer cells; assay: MTS cell viability assays, cell panel; assay type: cell-based; conditions: Homo sapiens, MCF-10A; all tested cells incl. MCF10A; read-out: MTS IC50 on all tested cells
Protocol: as §1

[2] = tested on: Wnt/β-catenin signaling (TOPFlash luciferase reporter); assay: TOPFlash luciferase reporter assay in SW480 cells; assay type: cell-based; conditions: Homo sapiens, 24 h
Protocol: The suppressing effect of the inhibitors on transactivation of Wnt/β-catenin signaling was evaluated by the TOPFlash/FOPFlash luciferase reporter assay. In the TOPFlash assay, the luciferase reporter has three wild-type Tcf4 binding sites, while in the FOPFlash assay Tcf4 binding sites were mutated. These tandem Tcf binding sites controls the expression ratio of the firefly luciferase in TOPFlash/FOPFlash assays. The renilla luciferase reporter construct (pCMV-RL) was used as the internal control to normalize luciferase reporter signals and eliminate any possible systematic errors. […] This selectivity trend is consistent with that from MTS cell viability assays. Therefore, further cell-based studies were focused on compound 30.
Cell Transfection and Luciferase Assay. FuGENE6 (E269A, Promega) 96 well plate format was used for the transfection of SW480 cells according to the manufacturer's instruction. SW480 cells were co-transfected with 60 ng the TOPFlash or FOPFlash firefly luciferase reporter gene and 40 ng renilla luciferase pCMV-RL normalization reporter gene. Cells were cultured in DMEM and 10% FBS at 37° C. for 24 h, and different concentrations of inhibitors or DMSO was added. After 24 h, the luciferase reporter activity was measured using the Dual-Glo system (E2940, Promega). […]

| SMILES | Ki (β-catenin/BCL9 PPI; AlphaScreen competitive inhibition assay, read-out: Ki for disruption of the β-catenin/BCL9 PPI) [µM] | AlphaScreen inhibitory activity in words (β-catenin/BCL9 PPI) | IC50 (β-catenin/BCL9 PPI; Table 1, AlphaScreen, inhibitors 16-26) [µM] | Ki (β-catenin/BCL9 PPI; Table 1, AlphaScreen, inhibitors 16-26, Ki derived from IC50, read-out: Ki) [µM] | IC50 (SW480) [µM] | IC50 (HCT116) [µM] | IC50 (MDA-MB-231) [µM] | IC50 (MDA-MB-468) [µM] | IC50 (MCF10A) [µM] | IC50 [1] [µM] | IC50 (β-catenin/BCL9 PPI; Table 2, AlphaScreen, inhibitors 27-30 (R- and S-isomers), preliminary) [µM] | Ki (β-catenin/BCL9 PPI; Table 2, AlphaScreen, inhibitors 27-30 (R- and S-isomers), preliminary, read-out: Ki) [µM] | selectivity for hyperactive cancer cells over normal MCF10A cells (MCF10A; MTS IC50 MCF10A versus cancer cells) | IC50 [2] [µM] |
| --- | --- | --- | --- | --- | --- | --- | --- | --- | --- | --- | --- | --- | --- | --- |
| CC(C)(C)OC(=O)C(C)(C)Oc1cccc(N2CCCC(C(=O)N(Cc3ccc(-c4cccs4)cc3)C3CC3)C2)c1 (centres unmarked) [Compound 17, tert-Butyl 2-(3-(3-(cyclopropyl(4-(thiophen-2-yl)benzyl)carbamoyl)piperidin-1-yl)phenoxy)-2-methylpropanoate] | > 90 | significant potency loss | > 100 | > 90 | > 200 | > 200 | > 200 | > 200 | > 200 | > 200 | – | – | – | – |
| COc1cccc(S(=O)(=O)NC(=O)C(C)(C)Oc2cccc(N3CCC[C@H](C(=O)N(Cc4ccc(-c5cccs5)cc4)C4CC4)C3)c2)c1 [Compound 28, (S)—N-Cyclopropyl-1-(3-((1-((3-methoxyphenyl)sulfonamido)-2-methyl-1-oxopropan-2-yl)oxy)phenyl)-N-(4-(thiophen-2-yl)benzyl) piperidine-3-carboxamide] | – | slightly superior to R-isomer | – | – | 28.2 ± 1.08 | 29.9 ± 1.99 | 19.8 ± 1.59 | 15.4 ± 2.49 | 30.4 ± 2.47 | – | ≤ 5 | ≤ 5 | much less selective over MCF10A cells | 7.8 |

From patent US20250019371A1, “SMALL-MOLECULAR INHIBITORS FOR THE BETA-CATENIN/ B-CELL LYMPHOMA 9 PROTEIN-PROTEIN INTERACTION” (H. LEE MOFFITT CANCER CENTER AND RESEARCH INSTITUTE, INC., priority 2021, published 2025)
